In ChEMBL document CHEMBL1144938, “Human beta-secretase (BACE) and BACE inhibitors” (J Med Chem, 2003):
Numbered stars: 1 amine (or outer) side, 2 acyl side, 3 side chain; on linkers, the order of the positions; unused ones are H or OH. Square brackets hold non-standard residues; d marks the D form. Peptide text beside a SMILES is read from it. Sta = CC(C)C[C@H](N)[C@@H](O)CC(=O)O; X1 = CCC(O)[C@H](N[*:1])C(=O)[*:2]; Orn = NCCC[C@H](N)C(=O)O

Experiments:
Beta-secretase 1 [1] = target: T1, Beta-secretase 1 (Homo sapiens, UniProt P56817); assay: Compound was tested for its inhibitory activity against human beta-Secretase (BACE)
T1 sequence (P56817 whole entry): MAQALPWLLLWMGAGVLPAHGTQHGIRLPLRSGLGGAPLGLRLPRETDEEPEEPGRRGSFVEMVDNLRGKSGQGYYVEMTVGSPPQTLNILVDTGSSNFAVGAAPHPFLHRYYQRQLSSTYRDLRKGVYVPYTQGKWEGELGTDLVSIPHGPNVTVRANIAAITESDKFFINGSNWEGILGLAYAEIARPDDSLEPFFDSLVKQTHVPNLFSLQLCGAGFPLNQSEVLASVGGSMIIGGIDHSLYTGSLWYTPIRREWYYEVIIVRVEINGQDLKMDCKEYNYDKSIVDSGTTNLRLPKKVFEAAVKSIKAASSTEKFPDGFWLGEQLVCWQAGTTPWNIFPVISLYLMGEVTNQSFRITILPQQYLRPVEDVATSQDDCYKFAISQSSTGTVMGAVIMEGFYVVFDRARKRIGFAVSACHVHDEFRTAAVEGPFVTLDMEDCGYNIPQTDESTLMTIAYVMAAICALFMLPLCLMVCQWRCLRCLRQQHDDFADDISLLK

Beta-secretase 1 [2] = target: T1, Beta-secretase 1; assay: Compound was tested for its effective concentration against human beta-Secretase (BACE)

SMILES	IC50 (Beta-secretase 1 [1]) [nM]	EC50 (Beta-secretase 1 [2]) [µM]
CC(C)[C@H](NC(=O)C[C@H](O)[C@H](Cc1cc(F)cc(F)c1)NC(=O)C(O)c1ccccc1-c1ccccc1)C(=O)Nc1cc(C(=O)O)cc(C(=O)O)c1 (stereo partly specified)	20	10
COC(=O)c1cc(NC(=O)[C@@H](NC(=O)C[C@H](O)[C@H](Cc2cc(F)cc(F)c2)NC(=O)C(O)c2ccccc2-c2ccccc2)C(C)C)cc(C(=O)OC)c1 (stereo partly specified)	120	4
CSCC[C@H](NC(=O)[C@@H](NC(=O)OC(C)(C)C)C(C)C)C(=O)N[C@@H](CC(C)C)[C@@H](O)C[C@@H](C)C(=O)N[C@H](C(=O)NCc1ccccc1)C(C)C	2	–
CCC(O)[C@H](NC(=O)[C@@H](N)CCCN)C(=O)N[C@@H](CCC(=O)O)C(=O)N[C@@H](CCC(=O)O)C(=O)N[C@H](C(=O)N[C@@H](CO)C(=O)N[C@@H](CCC(=O)O)C(=O)N[C@H](C(=O)N[C@@H](CCSC)C(=O)N[C@@H](CC(C)C)[C@@H](O)CC(=O)N[C@H](C(=O)N[C@@H](C)C(=O)N[C@@H](CCC(=O)O)C(=O)N[C@@H](Cc1ccccc1)C(=O)O)C(C)C)C(C)C)[C@@H](C)CC (stereo partly specified) (H-[Orn][X1]EEISEVM[Sta]VAEF-OH)	30	–
